# From publication PMC9604400, “Synthesis, Anticancer and Antitubercular Properties of New Chalcones and Their Nitrogen-Containing Five-Membered Heterocyclic Hybrids Bearing Sulfonamide Moiety” (International Journal of Molecular Sciences, 2022)
# Tests used:
# IGROV1 = assay: NCI-60 screen (SRB), ovarian cancer; settings: Homo sapiens
# NCI-H460 = assay: NCI-60 screen (SRB), non-small cell lung cancer; settings: Homo sapiens
# CCRF-CEM = assay: NCI-60 screen (SRB), leukemia; settings: Homo sapiens
# RXF 393 = assay: NCI-60 screen (SRB), renal cancer
# SF-539 = assay: NCI-60 screen (SRB), CNS cancer; settings: Homo sapiens
# RPMI-8226 = assay: NCI-60 screen (SRB), leukemia; settings: Homo sapiens
# HOP-92 = assay: NCI-60 screen (SRB), non-small cell lung cancer; settings: Homo sapiens
# MDA-MB-435 = assay: NCI-60 screen (SRB), melanoma; settings: Homo sapiens
# OVCAR-5 = assay: NCI-60 screen (SRB), ovarian cancer; settings: Homo sapiens
# LOX IMVI = assay: NCI-60 screen (SRB), melanoma; settings: Homo sapiens
# K-562 = assay: NCI-60 screen (SRB), leukemia; settings: Homo sapiens
# U251 = assay: NCI-60 screen (SRB), CNS cancer; settings: Homo sapiens
# COLO 205 = assay: NCI-60 screen (SRB), colon cancer; settings: Homo sapiens
# UO-31 = assay: NCI-60 screen (SRB), renal cancer; settings: Homo sapiens
# HCT-116 = assay: NCI-60 screen (SRB), colon cancer; settings: Homo sapiens
# colon cancer cell lines = assay: NCI-60 screen (SRB), colon cancer panel; type: cell-based; settings: Homo sapiens, single dose 10 μM, read-out: GI (growth inhibition), range over panel
# MDA-MB-468 = assay: NCI-60 screen (SRB), breast cancer
# SNB-75 = assay: NCI-60 screen (SRB), CNS cancer; settings: Homo sapiens
# SW-620 = assay: NCI-60 screen (SRB), colon cancer; settings: Homo sapiens
# A549/ATCC = assay: NCI-60 screen (SRB), non-small cell lung cancer; settings: Homo sapiens
# T-47D = assay: NCI-60 screen (SRB), breast cancer; settings: Homo sapiens, T47D
# HT29 = assay: NCI-60 screen (SRB), colon cancer; settings: Homo sapiens
# DU-145 = assay: NCI-60 screen (SRB), prostate cancer; settings: Homo sapiens
# EKVX = assay: NCI-60 screen (SRB), non-small cell lung cancer; settings: Homo sapiens
# SF-295 = assay: NCI-60 screen (SRB), CNS cancer; settings: Homo sapiens
# SNB-19 = assay: NCI-60 screen (SRB), CNS cancer; settings: Homo sapiens
# 786-0 = assay: NCI-60 screen (SRB), renal cancer; settings: Homo sapiens
# KM12 = assay: NCI-60 screen (SRB), colon cancer; settings: Homo sapiens
# SN12C = assay: NCI-60 screen (SRB), renal cancer; settings: Homo sapiens
# MALME-3M = assay: NCI-60 screen (SRB), melanoma; settings: Homo sapiens
# MDA-MB-231/ATCC = assay: NCI-60 screen (SRB), breast cancer; settings: Homo sapiens
# SK-MEL-2 = assay: NCI-60 screen (SRB), melanoma; settings: Homo sapiens
# OVCAR-4 = assay: NCI-60 screen (SRB), ovarian cancer; settings: Homo sapiens
smiles,measurement,setting,value
"COc1cc(OC)c(S(N)(=O)=O)cc1C(=O)C=Cc1ccccc1 [Compound 17a, 5-Cinnamoyl-2,4-dimethoxybenzenesulfonamide]",IC50,IGROV1; IGROV-1,9.74 µM
same,CC50,"IGROV1; IGROV-1, read-out: LC50",77 µM
same,IC50,NCI-H460; NCI-H460,1.95 µM
same,CC50,"NCI-H460; NCI-H460, read-out: LC50",51.2 µM
same,IC50,CCRF-CEM,3.93 µM
same,CC50,CCRF-CEM; read-out: LC50,> 100 µM
same,IC50,"RXF 393; Homo sapiens, RXF 393",1.9 µM
same,CC50,"RXF 393; Homo sapiens, RXF 393, read-out: LC50",30 µM
same,lethality,"RXF 393; RXF 393, single dose 10 μM",29.73%
same,IC50,SF-539; SF-539,2.44 µM
same,CC50,"SF-539; SF-539, read-out: LC50",30.1 µM
same,IC50,RPMI-8226; RPMI-8226,2.98 µM
same,CC50,"RPMI-8226; RPMI-8226, read-out: LC50",> 100 µM
same,IC50,HOP-92; HOP-92,2.06 µM
same,CC50,"HOP-92; HOP-92, read-out: LC50",37.1 µM
same,IC50,MDA-MB-435; MDA-MB-435,2.12 µM
same,CC50,"MDA-MB-435; MDA-MB-435, read-out: LC50",35.9 µM
same,IC50,OVCAR-5; OVCAR-5,13.2 µM
same,CC50,"OVCAR-5; OVCAR-5, read-out: LC50",53.7 µM
same,IC50,LOX IMVI,0.34 µM
same,CC50,LOX IMVI; read-out: LC50,41.4 µM
same,IC50,K-562; K562,1.5 µM
same,CC50,"K-562; K562, read-out: LC50",> 100 µM
same,IC50,U251; U-251,2.92 µM
same,CC50,"U251; U-251, read-out: LC50",39.2 µM
same,IC50,COLO 205; COLO 205,10.6 µM
same,CC50,"COLO 205; COLO 205, read-out: LC50",54.2 µM
same,IC50,UO-31; UO-31,4.76 µM
same,CC50,"UO-31; UO-31, read-out: LC50",43.5 µM
same,IC50,HCT-116; HCT-116,1.49 µM
same,CC50,"HCT-116; HCT-116, read-out: LC50",67.2 µM
same,inhibition at 10 µM,colon cancer cell lines,72.5 to 96.2%
same,IC50,"MDA-MB-468; Homo sapiens, MDA-MB-468",1.2 µM
same,CC50,"MDA-MB-468; Homo sapiens, MDA-MB-468, read-out: LC50",43.9 µM
same,lethality,"MDA-MB-468; MDA-MB-468, single dose 10 μM",43.37%
same,IC50,SNB-75; SNB-75,2.08 µM
same,CC50,"SNB-75; SNB-75, read-out: LC50",26.9 µM
same,IC50,SW-620; SW-620,2.68 µM
same,CC50,"SW-620; SW-620, read-out: LC50",48.5 µM
same,IC50,A549/ATCC; A549,10.5 µM
same,CC50,"A549/ATCC; A549, read-out: LC50",49 µM
same,IC50,T-47D,2.09 µM
same,CC50,T-47D; read-out: LC50,51.6 µM
same,IC50,HT29; HT-29,4.02 µM
same,CC50,"HT29; HT-29, read-out: LC50",42.5 µM
same,IC50,DU-145; DU-145,1.88 µM
same,CC50,"DU-145; DU-145, read-out: LC50",38.1 µM
same,IC50,EKVX,14.2 µM
same,CC50,EKVX; read-out: LC50,53.6 µM
same,IC50,SF-295; SF-295,15.7 µM
same,CC50,"SF-295; SF-295, read-out: LC50",58.2 µM
same,IC50,SNB-19; SNB-19,14 µM
same,CC50,"SNB-19; SNB-19, read-out: LC50",58 µM
same,IC50,786-0; 786-0,4.82 µM
same,CC50,"786-0; 786-0, read-out: LC50",63.2 µM
same,IC50,KM12; KM12,3.31 µM
same,CC50,"KM12; KM12, read-out: LC50",62.3 µM
same,IC50,SN12C,3.49 µM
same,CC50,SN12C; read-out: LC50,43.8 µM
same,IC50,MALME-3M,13.9 µM
same,CC50,MALME-3M; read-out: LC50,61.9 µM
same,IC50,MDA-MB-231/ATCC; MDA-MB-231,11.9 µM
same,CC50,"MDA-MB-231/ATCC; MDA-MB-231, read-out: LC50",61.6 µM
same,IC50,SK-MEL-2; SK-MEL-2,12.6 µM
same,CC50,"SK-MEL-2; SK-MEL-2, read-out: LC50",55.9 µM
same,IC50,OVCAR-4; OVCAR-4,11.8 µM
same,CC50,"OVCAR-4; OVCAR-4, read-out: LC50",55.9 µM
